Laboratory results published in paper PMC3001460, “FYVE-Dependent Endosomal Targeting of an Arrestin-Related Protein in Amoeba” (PLoS ONE, 2010).

Key:
[1] = molecular target: T1, MBP-FYVE (AdcA FYVE domain) (Dictyostelium discoideum, UniProt Q54CH1); assay: intrinsic tryptophan fluorescence titration; format: binding; details: read-out: affinity
T1 sequence (Q54CH1 458-530): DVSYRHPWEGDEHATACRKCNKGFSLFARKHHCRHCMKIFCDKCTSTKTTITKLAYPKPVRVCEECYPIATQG

ArfA-His6 = molecular target: T2, ArfA-His6 (Dictyostelium discoideum, UniProt O00909 1-182); assay: pull-down; GST-AdcAC on glutathione Sepharose beads, ArfA-His6 preincubated 1 hr at 4°C with 100 µM GDPβS or no extra nucleotide, then overnight at 4°C; 20 mM Tris pH 7.5, 25 mM NaCl, 2 mM DTT, 2 mM EDTA, 2.5 mM MgCl2, 1 mM ATP, 0.2% Triton X-100; Western blot with anti-Arf antibody; details: both partners purified
T2 construct: Preincubated with 100 µM GDPβS, 100 µM GTPγS or no extra nucleotide before the pull-down; The nucleotide state is told by the assay; also called Dd-ArfA; ADP-ribosylation factor ArfA; source: E. coli BL21(DE3), purified (Ni-NTA agarose); not shown: His6, C-terminal, kept
T2 sequence (O00909 whole entry): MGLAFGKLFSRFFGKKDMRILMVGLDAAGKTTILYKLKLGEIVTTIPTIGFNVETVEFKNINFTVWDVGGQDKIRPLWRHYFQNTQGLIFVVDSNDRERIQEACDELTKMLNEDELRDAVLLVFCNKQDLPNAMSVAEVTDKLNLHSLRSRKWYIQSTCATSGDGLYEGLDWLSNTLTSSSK

## O=P(O)(O)O[C@@H]1[C@H](O)[C@H](OP(=O)(O)O)[C@@H](O)[C@H](O)[C@H]1O [Ins(1,3)P2]
[1]
  Kd: ~20 µM

B1: GST-AdcAC (C domain of the arrestin core of AdcA, amino acids 311 to 459, fused to GST) (domain or fragment, Dictyostelium discoideum, UniProt Q54CH1 311-459, looked up)
chain: MLTKGKLHVKTWLNKNAYFPGETLVAKMKANNTSIKPTRKISLVVHHTMQLKTRLYHRCITNAIYKQQYDGFQPCFYGKRYLPFSIPVDLKPSSSLGKHITSSYLLELECDIPMAIDLSVTLPLTLFAPQFLYSTVPSQPPGTPLPPDV
notes: AdcA (arrestin-domain containing protein A) of Dictyostelium discoideum, whole protein 580 amino acids; C domain of the arrestin core, amino acids 311 to 459, in pGEX-KG; also called GST-AdcC; C-terminal domain of the AdcA arrestin core; not shown: GST, N-terminal, kept
ArfA-His6
  binding result: binds
